# Laboratory results taken from ChEMBL document CHEMBL3877274, “Preparation of novel ring-A fused azole derivatives of betulin and evaluation of their cytotoxicity” (Eur J Med Chem, 2017).
# Active and inactive are the calls of the source. The rule behind the calls is not given here.
# Legend:
# [1] = Cytotoxicity against human HCT116 cells measured after 72 hrs by MTT assay; format: functional, cell-based; conditions: HCT-116, 72 h
# [2] = Cytotoxicity against human HEK293 cells measured after 72 hrs by MTT assay; format: toxicity, cell-based
# [3] = Cytotoxicity against human TE32 cells measured after 72 hrs by MTT assay; format: functional, cell-based; conditions: RD
# [4] = Cytotoxicity against human MS cells measured after 72 hrs by MTT assay; format: functional, cell-based
# [5] = Cytotoxicity against human Hep2 cells measured after 72 hrs by MTT assay; format: functional, cell-based; conditions: HEp-2, 72 h
# [6] = Cytotoxicity against human A549 cells measured after 72 hrs by MTT assay; format: functional, cell-based; conditions: A549, 72 h
# HCT-116 [7] = test: Cytotoxicity against human HCT116 cells at 5.7 uM by MTT assay; format: functional, cell-based; conditions: TDE = time-dependent effect
# HCT-116 [8] = test: Induction of apoptosis in human HCT116 cells assessed as increase in cck18 level at 5.7 uM measured after 18 hrs; format: functional, cell-based
# HCT-116 [9] = test: Induction of apoptosis in human HCT116 cells assessed as viable cells at 5.7 uM measured after 18 hrs by Annexin-V FITC/propidium iodide staining based flow cytometry (reference value: 92.83%); format: functional; conditions: HCT-116, 18 h, read-out: Activity
# HCT-116 [10] = test: Induction of apoptosis in human HCT116 cells assessed as increase in caspase-3/7 activity at 5.7 uM measured up to 24 hrs; format: functional, cell-based
# [11] = Toxicity in po or ip dosed mouse administered as single dose measured after 14 days; format: organism-based; conditions: in vivo
# HCT-116 [12] = test: Induction of apoptosis in human HCT116 cells assessed as appearance of half moon or crescent shape nuclei at 5.7 uM measured after 18 hrs by Hoechst 33258 staining based fluorescence inverted microscopic analysis; format: functional, cell-based
# HCT-116 [13] = test: Induction of apoptosis in human HCT116 cells assessed as late apoptotic cells at 5.7 uM measured after 18 hrs by Annexin-V FITC/propidium iodide staining based flow cytometry (reference value: 1.13%); format: functional
# HCT-116 [14] = test: Induction of apoptosis in human HCT116 cells assessed as mitochondrial membrane permeability loss by measuring rhodamine 123 accumulation at 5.7 uM measured after 18 hrs by fluorescence inverted microscopic analysis; format: functional, cell-based
# HCT-116 [15] = test: Induction of apoptosis in human HCT116 cells assessed as necrotic cells at 5.7 uM measured after 18 hrs by Annexin-V FITC/propidium iodide staining based flow cytometry (reference value: 2.12%); format: functional
# HCT-116 [16] = test: Induction of apoptosis in human HCT116 cells assessed as chromatin condensation at 5.7 uM measured after 18 hrs by Hoechst 33258 staining based fluorescence inverted microscopic analysis; format: functional, cell-based
# HCT-116 [17] = test: Induction of apoptosis in human HCT116 cells assessed as formation of apoptotic bodies at 5.7 uM measured after 18 hrs by Hoechst 33258 staining based fluorescence inverted microscopic analysis; format: functional, cell-based
# HCT-116 [18] = test: Induction of apoptosis in human HCT116 cells assessed as early apoptotic cells at 5.7 uM measured after 18 hrs by Annexin-V FITC/propidium iodide staining based flow cytometry (reference value: 3.92%); format: functional
# HCT-116 [19] = test: Induction of apoptosis in human HCT116 cells assessed as increase in caspase-8 activity at 5.7 uM measured up to 24 hrs; format: functional, cell-based
# HCT-116 [20] = test: Induction of apoptosis in human HCT116 cells assessed as nuclear fragmentation at 5.7 uM measured after 18 hrs by Hoechst 33258 staining based fluorescence inverted microscopic analysis; format: functional, cell-based
# HCT-116 [21] = test: Induction of apoptosis in human HCT116 cells assessed as early apoptotic cells at 6.7 uM measured after 18 hrs by Annexin-V FITC/propidium iodide staining based flow cytometry (reference value: 3.92%); format: functional
# HCT-116 [22] = test: Induction of apoptosis in human HCT116 cells assessed as appearance of half moon or crescent shape nuclei at 6.7 uM measured after 18 hrs by Hoechst 33258 staining based fluorescence inverted microscopic analysis; format: functional, cell-based
# HCT-116 [23] = test: Induction of apoptosis in human HCT116 cells assessed as mitochondrial membrane permeability loss by measuring rhodamine 123 accumulation at 6.7 uM measured after 18 hrs by fluorescence inverted microscopic analysis; format: functional, cell-based
# HCT-116 [24] = test: Induction of apoptosis in human HCT116 cells assessed as chromatin condensation at 6.7 uM measured after 18 hrs by Hoechst 33258 staining based fluorescence inverted microscopic analysis; format: functional, cell-based
# HCT-116 [25] = test: Induction of apoptosis in human HCT116 cells assessed as nuclear fragmentation at 6.7 uM measured after 18 hrs by Hoechst 33258 staining based fluorescence inverted microscopic analysis; format: functional, cell-based
# HCT-116 [26] = test: Induction of apoptosis in human HCT116 cells assessed as formation of apoptotic bodies at 6.7 uM measured after 18 hrs by Hoechst 33258 staining based fluorescence inverted microscopic analysis; format: functional, cell-based
# HCT-116 [27] = test: Induction of apoptosis in human HCT116 cells assessed as viable cells at 6.7 uM measured after 18 hrs by Annexin-V FITC/propidium iodide staining based flow cytometry (reference value: 92.83%); format: functional; conditions: HCT-116, 18 h, read-out: Activity
# HCT-116 [28] = test: Induction of apoptosis in human HCT116 cells assessed as necrotic cells at 6.7 uM measured after 18 hrs by Annexin-V FITC/propidium iodide staining based flow cytometry (reference value: 2.12%); format: functional
# HCT-116 [29] = test: Induction of apoptosis in human HCT116 cells assessed as late apoptotic cells at 6.7 uM measured after 18 hrs by Annexin-V FITC/propidium iodide staining based flow cytometry (reference value: 1.13%); format: functional
Structure (SMILES),IC50 [1] [µM],IC50 [3] [µM],IC50 [4] [µM],IC50 [5] [µM],IC50 [6] [µM],further results
C=C(C)[C@@H]1CC[C@]2(C(=O)O)CC[C@]3(C)[C@H](CC[C@@H]4[C@@]5(C)Cc6c(nnc(C)[n+]6[O-])C(C)(C)[C@@H]5CC[C@]43C)[C@@H]12,1.4,> 100,> 100,1.5,> 100,IC50 at 72 h [2]: 2.1 µM
C=C(C)[C@@H]1CC[C@]2(COC(C)=O)CC[C@]3(C)[C@H](CC[C@@H]4[C@@]5(C)C(=O)c6nc(C)oc6C(C)(C)[C@@H]5CC[C@]43C)[C@@H]12,33.5,22.4,48.3,40.3,24,
C=C(C)[C@@H]1CC[C@]2(CO)CC[C@]3(C)[C@H](CC[C@@H]4[C@@]5(C)c6c(noc6C)C(=O)C(C)(C)[C@@H]5CC[C@]43C)[C@@H]12,29.3,> 100,24.3,30.7,> 100,
C=C(C)[C@@H]1CC[C@]2(COC(C)=O)CC[C@]3(C)[C@H](CC[C@@H]4[C@@]5(C)c6c(noc6C)C(=O)C(C)(C)[C@@H]5CC[C@]43C)[C@@H]12,19,14.8,14,22.1,7.85,
C=C(C)[C@@H]1CC[C@]2(CO)CC[C@]3(C)[C@H](CC[C@@H]4[C@@]5(C)Cc6c(nnc(C)[n+]6[O-])C(C)(C)[C@@H]5CC[C@]43C)[C@@H]12,14.3,> 100,16.2,4.5,> 100,
C=C(C)[C@@H]1CC[C@]2(COC(C)=O)CC[C@]3(C)[C@H](CC[C@@H]4[C@@]5(C)Cc6nn(C(C)=O)nc6C(C)(C)[C@@H]5CC[C@]43C)[C@@H]12,22.5,> 100,> 100,17.8,> 100,
C=C(C)[C@@H]1CC[C@]2(CO)CC[C@]3(C)[C@H](CC[C@@H]4[C@@]5(C)Cc6nn(C(C)=O)nc6C(C)(C)[C@@H]5CC[C@]43C)[C@@H]12,5.67,4.46,2.29,7.46,20.7,Activity (HCT-116 [7]): Tde; Activity (HCT-116 [8]): Active; viability at 5.7 µM (HCT-116 [9]): 80.9%; Activity (HCT-116 [10]): Active; LD50 at 336 h [11]: > 600 mg/kg; IC50 at 72 h [2]: 12.7 µM; Activity (HCT-116 [12]): Active; Activity (HCT-116 [13]): 1.04%; Activity (HCT-116 [14]): Active; Activity (HCT-116 [15]): 3.14%; Activity (HCT-116 [16]): Active; Activity (HCT-116 [17]): Active; Activity (HCT-116 [18]): 14.87%; Activity (HCT-116 [19]): Active; Activity (HCT-116 [20]): Active
C=C(C)[C@@H]1CC[C@]2(CO)CC[C@]3(C)[C@H](CC[C@@H]4[C@@]5(C)CCC(=O)C(C)(C)[C@@H]5CC[C@]43C)[C@@H]12 [BETULONE],34,13.2,18.2,22.5,32.9,
C=C(C)[C@@H]1CC[C@]2(CO)CC[C@]3(C)[C@H](CC[C@@H]4[C@@]5(C)C=C(NC(C)=O)C(=O)C(C)(C)[C@@H]5CC[C@]43C)[C@@H]12,5.15,> 100,> 100,10.5,> 100,
C=C(C)[C@@H]1CC[C@]2(CO)CC[C@]3(C)[C@H](CC[C@@H]4[C@@]5(C)C(=O)c6nc(C)oc6C(C)(C)[C@@H]5CC[C@]43C)[C@@H]12,16,> 100,26.7,19.4,43.2,
C=C(C)[C@@H]1CC[C@]2(COC(C)=O)CC[C@]3(C)[C@H](CC[C@@H]4[C@@]5(C)C=C(NC(C)=O)C(=O)C(C)(C)[C@@H]5CC[C@]43C)[C@@H]12,83.6,33.7,> 100,21.6,37.5,
CC[C@@]1(O)C(=O)OCc2c1cc1n(c2=O)Cc2cc3ccccc3nc2-1 [CAMPTOTHECIN],6.7,1.24,1.84,3.04,5.93,Activity (HCT-116 [21]): 12.44%; Activity (HCT-116 [22]): Active; IC50 at 72 h [2]: 0.89 µM; Activity (HCT-116 [23]): Active; Activity (HCT-116 [24]): Active; Activity (HCT-116 [25]): Active; Activity (HCT-116 [26]): Active; viability at 6.7 µM (HCT-116 [27]): 80.9%; Activity (HCT-116 [28]): 5.07%; Activity (HCT-116 [29]): 1.6%
C=C(C)[C@@H]1CC[C@]2(C=O)CC[C@]3(C)[C@H](CC[C@@H]4[C@@]5(C)Cc6nn(C(C)=O)nc6C(C)(C)[C@@H]5CC[C@]43C)[C@@H]12,> 100,46,> 100,> 100,53.2,
C=C(C)[C@@H]1CC[C@]2(CO)CC[C@]3(C)[C@H](CC[C@@H]4[C@@]5(C)C/C(=N\O)C(=O)C(C)(C)[C@@H]5CC[C@]43C)[C@@H]12,2.81,35.8,27.6,> 100,47.5,
